Experimental data from the NIST ThermoML archive (doi:10.1016/j.jct.2008.07.009).

Assay: xn = mol fraction of the nth substance listed
Conditions: 101 kPa, Liquid, Vibrating tube method

CC(=O)N1CCOCC1 [4-acetylmorpholine] + c1ccccc1
mass density [kg/m3]
Conditions	293.15 K	303.15 K	313.15 K	323.15 K	333.15 K	343.15 K
x2 = 0.0546	1104.6	1096.7	1088.2	1079.6	1071	1062.4
x2 = 0.1127	1094.9	1086.8	1078.1	1069.3	1060.6	1051.8
x2 = 0.1568	1087.2	1079	1070.2	1061.2	1052.4	1043.5
x2 = 0.2099	1078	1069.6	1060.6	1051.3	1042.3	1033.2
x2 = 0.2673	1067.5	1058.9	1049.8	1040.5	1031.4	1022.1
x2 = 0.3128	1059	1050.2	1040.9	1031.6	1022.2	1012.9
x2 = 0.3564	1050.6	1041.7	1032.3	1022.8	1013.4	1003.9
x2 = 0.4056	1040.8	1031.7	1022.2	1012.5	1002.9	993.3
x2 = 0.4562	1030.1	1020.8	1011.2	1001.4	991.7	981.8
x2 = 0.5039	1019.5	1010.1	1000.3	990.4	980.6	970.6
x2 = 0.5683	1004.5	994.9	984.9	974.9	964.9	954.8
x2 = 0.6138	993.3	983.5	973.5	963.4	953.2	942.6
x2 = 0.6866	974.4	964.5	954.3	943.9	933.6	923.3
x2 = 0.7437	958.7	948.6	938.3	927.7	917.6	907.1
x2 = 0.8033	941.3	931.1	920.7	910.2	899.7	889.2
x2 = 0.8659	922.4	912.1	901.6	891	880.5	869.8
x2 = 0.9154	906.8	896.3	885.8	875.2	864.6	853.8
x2 = 0.9687	889.4	878.9	868.4	857.7	847	836.3
